Laboratory results published in PMC8224802 (Pharmaceutics, 2021).
Where two headings read alike, the source gives them in different places.

What was measured:
[1] = In vivo oral pharmacokinetic study of RPG without or with QCT in rats; parameters: species or system Sprague-Dawley rats; conditions: rats, oral QCT 100 mg/kg
Procedure: Rats were anesthetized via intramuscular injection of 10 mg/kg zoletil. The femoral vein and artery of the rats were cannulated using a polyethylene tube (BD Medical, Franklin Lakes, NJ, USA). […] The vehicle solutions for the intravenous and oral doses were composed of PEG 400 and aqueous 0.3% CMC solution (50:50 v/v).
For comparison, the extent of absolute oral bioavailability (F; expressed as percent of dose administered) was calculated by dividing the dose-normalized AUC after oral administration by the dose-normalized AUC after intravenous injection. The peak plasma concentration (Cmax) and time to reach Cmax (Tmax) were obtained directly from the measured experimental data.

[2] = system: microsomal metabolism of RPG in RLM; assay: In vitro inhibition of RPG metabolism by QCT in RLM; format: in vitro ADME, rat
Procedure: (§1) The intrinsic metabolic clearance (CLint) was calculated as Vmax/Km. […] The parameter α is indicative of the inhibition type. The mixed model is a general equation that includes competitive, uncompetitive, and noncompetitive inhibition as special cases. When α = 1, the mixed model is identical to a noncompetitive inhibition. When α is very large (α→∞) or very small (α→0), the mixed model becomes identical to competitive inhibition or uncompetitive inhibition, respectively.

[3] = system: microsomal metabolism of RPG (repaglinide); assay: as above; format: in vitro ADME, rat; conditions: rat, rat liver microsomes
Procedure: as §1

[4] = parameters: method as in earlier work; conditions: Table S3, ref [1] of the supplement (Ganio et al., 2010); cited from earlier work
[5] = Microsomal protein binding by rapid equilibrium dialysis (HLM); conditions: human, microsomes
Procedure: (§2) A 200 μL spiked samples and 400 μL PBS were placed into the “sample” and “buffer” chambers of the RED device, respectively. After 4-h incubation to equilibrate between the buffer and plasma compartments, the RED plate was sampled from both compartments. The samples were matrix-matched for analysis by addition of either diluted plasma or buffer; (a) blank diluted plasma added to the buffer samples and (b) blank buffer added to the diluted plasma sample, at a ratio of 50:50 v/v. The unbound fractions in microsomes and diluted plasma were determined by dividing the analyte/IS peak area ratios of the (a) sample by those of the (b) sample. The unbound fraction in diluted plasma (fu,d) was converted to the unbound fraction in undiluted plasma (fu) using a Kalvass equation as below (DF: dilution factor). (1) fu=1/DF/[(1/fu,d)−1]+1/DF

[6] = system: in vitro metabolism of RPG in HLM; conditions: cited from earlier work
[7] = Plasma protein binding by rapid equilibrium dialysis (human plasma); format: in vitro ADME; conditions: human, plasma (20-fold diluted); Table S3, in-house; species not printed (clinical prediction); read-out: fu,QCT
Procedure: as §2

[8] = system: microsomal metabolism of RPG in HLM; assay: In vitro inhibition of RPG metabolism by QCT in HLM; format: in vitro ADME, human
Procedure: as §1

[9] = system: microsomal metabolism of RPG (repaglinide); assay: as above; format: in vitro ADME, human; conditions: human, human liver microsomes
Procedure: as §1

CYP3A4 = system: CYP3A4; parameters: method as in PMID 28232125; conditions: read-out: Ki of QCT for CYP3A4 activity; cited from earlier work
[10] = healthy subjects, cited from earlier work
[11] = cited from earlier work
[12] = probe RPG (repaglinide), 1, 3, 10, 30 and 100 μM

O=c1c(O)c(-c2ccc(O)c(O)c2)oc2cc(O)cc(O)c12 [QCT, Quercetin]
Classification of QCT as inhibitor of in vivo metabolism and systemic exposure of RPG [1]: weak inhibitor | Type of inhibition of RPG metabolism by QCT ([2]; RLM, Dixon plot and model fit): mixed inhibition | Inhibition potency of QCT on hepatic metabolism of RPG in vitro ([2]; rats (RLM)): weak | IC50 at 60 min ([3]; probe RPG (repaglinide), 3 μM): […] | Ki at 60 min [3, 12]: 72 µM | Imax,u (maximum unbound plasma concentration of QCT) [4]: […] | fraction unbound at 4 h, 5 μM [5]: 0.381 | Inhibition of in vitro metabolism of RPG ([6]; QCT 25 μM, RPG 0.2 μM): 58% | Effect of QCT on metabolism of RPG in HLM ([6]; RPG 0.2 and 2 μM, QCT 25 μM): significantly inhibited | Ki ([6]; read-out: Ki for the inhibitory effect of QCT on in vitro metabolism of RPG): 0.61 µM | fraction unbound at 4 h, 5 μM [7]: 0.0462 | Type of inhibition of RPG metabolism by QCT ([8]; HLM, Dixon plot and model fit): mixed inhibition | IC50 ([8]; Table S3, source Figure 4, read-out: IC50 used for estimation of R): 1.66 µM | Inhibition potency of QCT on hepatic metabolism of RPG in vitro ([8]; humans (HLM)): moderate | IC50 ([8]; read-out: IC50 of QCT on the microsomal metabolism of RPG, HLM 0.5 mg/mL, 3 μM RPG): 3.03 ± 1.84 µM | IC50 ([9]; probe RPG (repaglinide), 3 μM, IC50 of QCT on the microsomal metabolism of RPG, HLM 0.5 mg/mL, 3 μM RPG): 3 µM | Ki [9, 12]: 24.2 µM | Ki ([9]; probe RPG (repaglinide), Table S3, S = 5 μM, read-out: Calculated Ki, (fu,mic,QCT × IC50) / (S / Km + 1)): 0.534 µM | Ki (CYP3A4): […]

Cn1c(=O)c2c(ncn2C)n(C)c1=O [caffeine]
Effect of oral QCT on systemic exposure (AUC and/or Cmax) ([10]; QCT 500 mg/day for 14 days): significantly increased

COC(=O)[C@H](c1ccccc1Cl)N1CCc2sccc2C1 [clopidogrel]
Increase of systemic exposure to orally administered RPG by CYP2C8 inhibitors [11]: 3.1–5.1 fold

CCC(C)n1ncn(-c2ccc(N3CCN(c4ccc(OCC5COC(Cn6cncn6)(c6ccc(Cl)cc6Cl)O5)cc4)CC3)cc2)c1=O (stereo not shown) [itraconazole]
Increase of systemic exposure to orally administered RPG by CYP3A4 inhibitors [11]: 1.4 fold

CN(CCOc1ccc(CC2SC(=O)NC2=O)cc1)c1ccccn1 (stereo not shown) [rosiglitazone]
Effect of oral QCT on the pharmacokinetics of rosiglitazone ([10]; QCT 500 mg/day for 21 days): did not significantly change

CC[C@H]1OC(=O)[C@H](C)C(=O)[C@H](C)[C@@H](O[C@@H]2O[C@H](C)C[C@H](N(C)C)[C@H]2O)[C@](C)(OC)C[C@@H](C)C(=O)[C@H](C)[C@H]2N(CCCCn3cnc(-c4cccnc4)c3)C(=O)O[C@]12C [telithromycin]
Increase of systemic exposure to orally administered RPG by CYP3A4 inhibitors [11]: 1.8 fold

COc1cc(Cc2cnc(N)nc2N)cc(OC)c1OC [trimethoprim]
Increase of systemic exposure to orally administered RPG by CYP2C8 inhibitors [11]: 1.6–2 fold
